Laboratory results reported in US20220023471A1, “PROCESS FOR DISINFECTION AND PROTECTING SURFACES FROM CONTAMINATION” (GERMINATOR MOBILE SANITIZING, LLC, priority 2020, published 2022).

Legend:
Assay in all cases: Microorganism Efficacy Test (percent reduction in culture)
Format in all cases: cell-based
[1] = tested on: Serratia marscesens ATCC 14756; conditions: time point 15 seconds
Description: (§1) Example 1: A Microorganism Efficacy Test for Step One using Hypochlorous acid was tested against a range of different germs and bacteria to determine its efficacy. The hypochlorous acid was added to cultures of the listed microorganisms and left for the indicated amount of time. The percent reduction of each microorganism was measured after the time period had elapsed and the results are shown below in Table 1.

[2] = tested on: Acinetobacter baumannii ATCC 19606; conditions: time point 15 seconds
Description: as §1

[3] = tested on: Pseudomonas aeruginosa ATCC 9027; conditions: time point 60 seconds
Description: as §1

[4] = tested on: Staphylococcus arureus (MRSA) ATCC 33592; conditions: time point 15 seconds
Description: as §1

[5] = tested on: Candida albicans ATCC 1023; conditions: time point 60 seconds
Description: as §1

[6] = tested on: A brasiliensis ATCC 16404; conditions: time point 60 seconds
Description: as §1

C Difficile ATCC 43598 = conditions: time point 60 seconds
Description: as §1

[7] = tested on: Propionibacterium Acnes ATCC 6919; conditions: time point 60 seconds
Description: as §1

E. Coli ATCC 8739 = conditions: time point 60 seconds
Description: as §1

[8] = tested on: Proteus mirabilis ATCC7002; conditions: time point 15 seconds
Description: as §1

[9] = tested on: K. pneumonia (CRE) ATCC BAA-2146; conditions: time point 60 seconds
Description: as §1

[10] = tested on: Listeria Monocytogens ATCC 15313; conditions: time point 60 seconds
Description: as §1

S. aureus ATCC 6538 = conditions: time point 60 seconds
Description: as §1

[11] = tested on: Enterococcus faecalis (VRE) ATCC 51299; conditions: time point 15 seconds
Description: as §1

OCl [Hypochlorous acid]
% REDUCTION [1]: >99.999% | % REDUCTION [2]: 100% | % REDUCTION [3]: >99.999% | % REDUCTION [4]: >99.999% | % REDUCTION [5]: >99.9999% | % REDUCTION [6]: >99.999% | % REDUCTION (C Difficile ATCC 43598): >100% | % REDUCTION [7]: >99.99% | % REDUCTION (E. Coli ATCC 8739): >99.999% | % REDUCTION [8]: >99.999% | % REDUCTION [9]: >99.9994% | % REDUCTION [10]: >99.96% | % REDUCTION (S. aureus ATCC 6538): >99.999% | % REDUCTION [11]: 100%
